Experimental data from PubChem BioAssay AID1117328 (Cheminformatics & Chemogenomics Research Group (CCRG), …, 2015).
Calls of active or inactive are those of the source. The rule behind the calls is not given here.

Target: Ribosomal protein S6 kinase beta-1 (Homo sapiens) (UniProt P23443)
Assay: p70S6K1 kinase inhibitors, biochemical, LANCE Ultra TR-FRET (AID 1117328)
Conditions: LANCE Ultra TR-FRET kinase assay, at 20 µM (top of the series)

Sequence of Ribosomal protein S6 kinase beta-1 (Homo sapiens) (P23443 whole entry, looked up): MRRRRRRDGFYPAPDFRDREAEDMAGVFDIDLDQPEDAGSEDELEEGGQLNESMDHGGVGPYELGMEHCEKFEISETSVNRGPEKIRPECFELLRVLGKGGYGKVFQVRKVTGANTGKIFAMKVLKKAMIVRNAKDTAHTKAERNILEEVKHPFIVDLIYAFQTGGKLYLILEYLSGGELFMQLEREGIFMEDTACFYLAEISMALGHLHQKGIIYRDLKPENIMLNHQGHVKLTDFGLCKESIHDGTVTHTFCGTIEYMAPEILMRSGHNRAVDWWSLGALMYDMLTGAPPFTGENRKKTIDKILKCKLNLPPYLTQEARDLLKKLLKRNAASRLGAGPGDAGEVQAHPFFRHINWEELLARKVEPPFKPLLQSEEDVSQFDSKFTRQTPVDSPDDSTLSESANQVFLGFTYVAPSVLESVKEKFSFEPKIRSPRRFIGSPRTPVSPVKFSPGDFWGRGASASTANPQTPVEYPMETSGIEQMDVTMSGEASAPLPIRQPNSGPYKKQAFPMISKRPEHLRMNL

Structure (SMILES) | inhibition
CCC1=C[C@@H]2CN(C1)Cc1c([nH]c3ccccc13)[C@@](C(=O)OC)(c1cc3c(cc1OC)N(C)[C@H]1[C@@](O)(C(=O)OC)[C@H](OC(C)=O)[C@]4(CC)C=CCN5CC[C@]31[C@@H]54)C2 | -0.16% (inactive)
COC(=O)Nc1nc2ccc(C(=O)C3CC3)cc2[nH]1 | 12.7% (inactive)
Cc1ccccc1C(=O)Nc1ccc(C(=O)N2CCCC(N(C)C)c3ccccc32)cc1 (stereo unspecified) | -7.07% (inactive)
Oc1c(Cl)cc(Cl)cc1Sc1cc(Cl)cc(Cl)c1O | 40.3% (inactive)
Cc1ccc(Nc2nccc(N(C)c3ccc4c(C)n(C)nc4c3)n2)cc1S(N)(=O)=O | 5.82% (inactive)
O=C(Nc1ccc([N+](=O)[O-])cc1Cl)c1cc(Cl)ccc1O | 49.9% (inactive)
CCN(CC)CCNc1ccc(CO)c2sc3ccccc3c(=O)c12 | 37.2%
CCCCCCCCCCCCCCCC[n+]1ccccc1 | -110% (inactive)
Oc1c(Cl)cc(Cl)c2cccnc12 | 8.07% (inactive)
COc1cc(NCc2ccc3nc(N)nc(N)c3c2C)cc(OC)c1OC | 38% (inactive)
C[C@@]12C(=O)OC(=O)[C@]1(C)C1CCC2O1 | 6.38% (inactive)
CNC(=O)c1cc(Oc2ccc(NC(=O)Nc3ccc(Cl)c(C(F)(F)F)c3)cc2)ccn1 | 64.8%
CCc1nc(N)nc(N)c1-c1ccc(Cl)cc1 | 11.7% (inactive)
COc1c(C)c2c(c(O)c1C/C=C(\C)CCC(=O)OCCN1CCOCC1)C(=O)OC2 | 1.51% (inactive)
CC[C@@H]([C@H](C)O)n1ncn(-c2ccc(N3CCN(c4ccc(OC[C@@H]5CO[C@@](Cn6cncn6)(c6ccc(F)cc6F)C5)cc4)CC3)cc2)c1=O | -23% (inactive)
CC[C@]1(O)C[C@@H]2CN(CCc3c([nH]c4ccccc34)[C@@](C(=O)OC)(c3cc4c(cc3OC)N(C)[C@H]3[C@@](O)(C(=O)OC)[C@H](OC(C)=O)[C@]5(CC)C=CCN6CC[C@]43[C@@H]65)C2)C1 | -1.14% (inactive)
Nc1ccc2cc3ccc(N)cc3nc2c1 | -285% (inactive)
O=c1[nH]c(=O)n([C@H]2C[C@H](O)[C@@H](CO)O2)cc1C(F)(F)F | 5.58% (inactive)
CNC(=O)c1ccccc1Sc1ccc2c(/C=C/c3ccccn3)n[nH]c2c1 | -17.9% (inactive)
COC(=O)Nc1nc2ccc(S(=O)c3ccccc3)cc2[nH]1 (stereo unspecified) | -8.8% (inactive)
Cc1ccc([N+](=O)[O-])[c]2c1[O][Hg]2 | 33.5% (inactive)

Structure (SMILES) | inhibition
Cc1cc(O)c2ccccc2c1O | 39.1% (inactive)
COc1cccc2c1C(=O)c1c(O)c3c(c(O)c1C2=O)C[C@@](O)(C(C)=O)C[C@@H]3O[C@H]1C[C@H](N)[C@H](O)[C@H](C)O1 | -19.5% (inactive)
Cc1cc(C2CCCCC2)n(O)c(=O)c1 | -2.62% (inactive)
CCCOc1ccc2nc(NC(=O)OC)[nH]c2c1 | -4.03% (inactive)
CCCCCCNC(=O)n1cc(F)c(=O)[nH]c1=O | -0.86% (inactive)
CN(C)c1ccc2nc3ccc(=[N+](C)C)cc-3sc2c1 | -350% (inactive)
Cc1nc(N)nc(N)c1-c1ccc(Cl)c(Cl)c1 | 5.16% (inactive)
NC(=NCCCCCCN=C(N)/N=C(\N)Nc1ccc(Cl)cc1)/N=C(\N)Nc1ccc(Cl)cc1 | 29.9% (inactive)
C=C(C)[C@H]1Cc2c(ccc3c2O[C@@H]2COc4cc(OC)c(OC)cc4[C@@H]2C3=O)O1 | -6.37% (inactive)
O=C(CCl)c1ccc(Cl)cc1Cl | -8.03% (inactive)
CCCCc1oc2ccccc2c1C(=O)c1cc(I)c(OCCN(CC)CC)c(I)c1 | -4.08% (inactive)
CCCSc1ccc2nc(NC(=O)OC)[nH]c2c1 | -2.9% (inactive)
COc1ccc2cc1Oc1ccc(cc1)C[C@H]1c3c(cc4c(c3Oc3cc5c(cc3OC)CCN(C)[C@@H]5C2)OCO4)CCN1C | -3.96% (inactive)
CCCCCCCCCCCCCCCCCCNC(=O)OC1CCN(C(=O)OC[C@H](COC(=O)N(Cc2cccc[n+]2CC)C(=O)c2ccccc2OC)OC)CC1 | -363% (inactive)
C=CC(=O)Nc1cc2c(Nc3ccc(F)c(Cl)c3)ncnc2cc1OCCCN1CCOCC1 | 10.8% (inactive)
Cc1nc2ccc(CN(C)c3ccc(C(=O)N[C@@H](CCC(=O)O)C(=O)O)s3)cc2c(=O)[nH]1 | 26.6% (inactive)
Cc1ccc2nc(N)[nH]c(=O)c2c1Sc1ccncc1 | 50.1%
CCCCC1C(=O)N(c2ccccc2)N(c2ccc(O)cc2)C1=O (stereo unspecified) | 0.82% (inactive)
COc1ccc(-c2nc3ccc(C4=NNC(=O)CC4C)cc3[nH]2)cc1 (stereo unspecified) | -32.5% (inactive)
Cc1nc(Nc2ncc(C(=O)Nc3c(C)cccc3Cl)s2)cc(N2CCN(CCO)CC2)n1 | 5.32% (inactive)
